# Molecular target: T1, mOR256-3 (Mus musculus, UniProt Q0VEF0)
# T1 construct: gene Olfr124; full-length receptor from Dr H. Matsunami, expressed in Hana3A cells; surface detected by antirhodopsin antibody
# T1 sequence (Q0VEF0 1-315): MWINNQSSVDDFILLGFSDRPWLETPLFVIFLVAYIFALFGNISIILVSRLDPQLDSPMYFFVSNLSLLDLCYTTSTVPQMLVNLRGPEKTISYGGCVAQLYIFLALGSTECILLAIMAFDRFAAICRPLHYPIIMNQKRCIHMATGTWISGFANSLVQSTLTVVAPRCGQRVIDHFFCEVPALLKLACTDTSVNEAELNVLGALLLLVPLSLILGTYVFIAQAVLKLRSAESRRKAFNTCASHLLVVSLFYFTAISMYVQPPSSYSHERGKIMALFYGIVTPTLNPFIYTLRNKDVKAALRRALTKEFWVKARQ
# Test: CRE-luciferase cAMP reporter in Hana3A cells, dose-response fit
# Format: cell-based
# Conditions: agonist; 4 h, 37 °C, 5% CO2
row,Structure (SMILES),EC50
1,CCCCCC(C)=O [2-heptanone],Ten odorants activated mOR256-3 in a dose-dependent manner
2,C=C(C)[C@@H]1CC=C(C)C(=O)C1 [R-carvone],Ten odorants activated mOR256-3 in a dose-dependent manner
3,O=c1ccc2ccccc2o1 [coumarin],Ten odorants activated mOR256-3 in a dose-dependent manner
4,CCCCCCCCO [1-octanol],Ten odorants activated mOR256-3 in a dose-dependent manner
5,CCCCCCCC=O [octanal],Ten odorants activated mOR256-3 in a dose-dependent manner
6,CC(C)=CCC/C(C)=C/CO [geraniol],Ten odorants activated mOR256-3 in a dose-dependent manner
7,C=CCOC(=O)Cc1ccccc1 [allyl phenylacetate],Ten odorants activated mOR256-3 in a dose-dependent manner
8,CCCCCCCC(=O)O [octanoic acid],Ten odorants activated mOR256-3 in a dose-dependent manner
9,CC(=O)OCc1ccccc1 [benzyl acetate],Ten odorants activated mOR256-3 in a dose-dependent manner

# Same assay, conditions: agonist; 4 h, 37 °C, 5% CO2; E/Z composition of citral not stated
row,Structure (SMILES),EC50
1,CC(C)=CCCC(C)=CC=O [citral],Ten odorants activated mOR256-3 in a dose-dependent manner

# Molecular target: T1, mOR256-3
# Test: CRE-luciferase cAMP reporter in Hana3A cells, inhibition of odorant response
# Format: cell-based
# Conditions: antagonist against R-carvone, coumarin and geraniol
row,Structure (SMILES),"CRE-luciferase cAMP reporter in Hana3A cells, inhibition of odorant response"
1,O=Cc1ccccc1 [benzaldehyde],"Benzaldehyde antagonized R-carvone, coumarin, and geraniol"

# Reference: article PMC9442423, “Extracellular loop 2 of G protein–coupled olfactory receptors is critical for odorant recognition” (The Journal of Biological Chemistry, 2022)
